Measurements: BigSolDB 2.1

O=C(O)CCP(=O)(O)c1ccccc1
Conditions	solubility (mole fraction)
in 2-butanone, 293.16 K	0.00061
in 2-butanone, 298.17 K	0.00077
in 2-butanone, 303.18 K	0.00103
in 2-butanone, 308.14 K	0.00127
in 2-butanone, 313.16 K	0.00163
in 2-butanone, 318.17 K	0.00206
in 2-butanone, 323.16 K	0.00253
in 2-butanone, 328.16 K	0.00316
in 2-butanone, 333.15 K	0.00395
in 2-ethoxyethanol, 293.16 K	0.0461
in 2-ethoxyethanol, 298.17 K	0.0512
in 2-ethoxyethanol, 303.18 K	0.0571
in 2-ethoxyethanol, 308.14 K	0.0638
in 2-ethoxyethanol, 313.16 K	0.0709
in 2-ethoxyethanol, 318.17 K	0.0777
in 2-ethoxyethanol, 323.16 K	0.0849
in 2-ethoxyethanol, 328.16 K	0.0937
in 2-ethoxyethanol, 333.15 K	0.102
in acetic acid, 293.16 K	0.0105
in acetic acid, 298.17 K	0.0116
in acetic acid, 303.18 K	0.013
in acetic acid, 308.14 K	0.0147
in acetic acid, 313.16 K	0.0164
in acetic acid, 318.17 K	0.0182
in acetic acid, 323.16 K	0.0205
in acetic acid, 328.16 K	0.0225
in acetic acid, 333.15 K	0.0249
in acetone, 293.16 K	0.00074
in acetone, 298.17 K	0.00093
in acetone, 303.18 K	0.00124
in acetone, 308.14 K	0.00153
in acetone, 313.16 K	0.00197
in acetone, 318.17 K	0.00248
in acetone, 323.16 K	0.00305
in acetonitrile, 293.16 K	6e-05
in acetonitrile, 298.17 K	0.0001
in acetonitrile, 303.18 K	0.00015
in acetonitrile, 308.14 K	0.00023
in acetonitrile, 313.16 K	0.00035
in acetonitrile, 318.17 K	0.00053
in acetonitrile, 323.16 K	0.00078
in acetonitrile, 328.16 K	0.00109
in acetonitrile, 333.15 K	0.00161
in benzene, 293.16 K	0.00081
in benzene, 298.17 K	0.00091
in benzene, 303.18 K	0.00099
in benzene, 308.14 K	0.00107
in benzene, 313.16 K	0.00114
in benzene, 318.17 K	0.00126
in benzene, 323.16 K	0.00134
in benzene, 328.16 K	0.00145
in benzene, 333.15 K	0.00156
in chloroform, 288.15 K	0.00021
in chloroform, 293.16 K	0.00026
in chloroform, 298.17 K	0.00033
in chloroform, 303.18 K	0.00041
in chloroform, 308.14 K	0.00052
in chloroform, 313.16 K	0.00063
in chloroform, 318.17 K	0.00079
in chloroform, 323.16 K	0.00093
in chloroform, 328.16 K	0.00112
in chloroform, 333.15 K	0.00133
in cyclohexane, 293.16 K	0.00088
in cyclohexane, 298.17 K	0.00108
in cyclohexane, 303.18 K	0.00128
in cyclohexane, 308.14 K	0.00157
in cyclohexane, 313.16 K	0.00186
in cyclohexane, 318.17 K	0.00222
in cyclohexane, 323.16 K	0.00263
in cyclohexane, 328.16 K	0.00314
in cyclohexane, 333.15 K	0.00371
in dichloromethane, 288.15 K	0.00029
in dichloromethane, 293.16 K	0.00042
in dichloromethane, 298.17 K	0.00059
in dichloromethane, 303.18 K	0.0008
in dichloromethane, 308.14 K	0.00111
in dichloromethane, 313.16 K	0.00149
in ethyl acetate, 293.16 K	0.00128
in ethyl acetate, 298.17 K	0.00148
in ethyl acetate, 303.18 K	0.00162
in ethyl acetate, 308.14 K	0.00182
in ethyl acetate, 313.16 K	0.00202
in ethyl acetate, 318.17 K	0.00226
in ethyl acetate, 323.16 K	0.00254
in ethyl acetate, 328.16 K	0.00281
in ethyl acetate, 333.15 K	0.00311
in toluene, 293.16 K	0.00051
in toluene, 298.17 K	0.00059
in toluene, 303.18 K	0.00068
in toluene, 308.14 K	0.00079
in toluene, 313.16 K	0.00092
in toluene, 318.17 K	0.00105
in toluene, 323.16 K	0.00119
in toluene, 328.16 K	0.00138
in toluene, 333.15 K	0.00154
in water, 298.25 K	0.00178
in water, 308.66 K	0.00366
in water, 318.07 K	0.00671
in water, 327.17 K	0.0133
in water, 337.55 K	0.0249
in water, 342.75 K	0.0339
in water, 345.06 K	0.0412
in water, 349.47 K	0.0568

COc1ccc(P(c2ccc(OC)cc2)c2ccc(OC)cc2)cc1
Conditions	solubility (mole fraction)
in 2-butanone, 293.16 K	0.00621
in 2-butanone, 298.17 K	0.00684
in 2-butanone, 303.18 K	0.00749
in 2-butanone, 308.14 K	0.00815
in 2-butanone, 313.16 K	0.00884
in 2-butanone, 318.17 K	0.00962
in 2-butanone, 323.16 K	0.0103
in 2-butanone, 328.17 K	0.0113
in 2-butanone, 333.16 K	0.0121
in 2-ethoxyethanol, 293.16 K	0.00522
in 2-ethoxyethanol, 298.17 K	0.00693
in 2-ethoxyethanol, 303.18 K	0.00862
in 2-ethoxyethanol, 308.14 K	0.0108
in 2-ethoxyethanol, 313.16 K	0.0136
in 2-ethoxyethanol, 318.17 K	0.0168
in 2-ethoxyethanol, 323.16 K	0.0209
in 2-ethoxyethanol, 328.17 K	0.0255
in 2-ethoxyethanol, 333.16 K	0.0311
in 2-ethoxyethanol, 338.17 K	0.0377
in 2-ethoxyethanol, 343.15 K	0.0454
in benzene, 293.16 K	0.00029
in benzene, 298.17 K	0.00037
in benzene, 303.18 K	0.00045
in benzene, 308.14 K	0.00054
in benzene, 313.16 K	0.00068
in benzene, 318.17 K	0.00082
in benzene, 323.16 K	0.00099
in cyclohexane, 299.15 K	0.00054
in cyclohexane, 304.05 K	0.00082
in cyclohexane, 308.85 K	0.00107
in cyclohexane, 313.95 K	0.00151
in cyclohexane, 318.45 K	0.00231
in cyclohexane, 323.65 K	0.00326
in cyclohexane, 328.45 K	0.00436
in cyclohexane, 332.85 K	0.00596
in cyclohexane, 337.65 K	0.00848
in diethyl ether, 293.16 K	0.00587
in diethyl ether, 296.17 K	0.00721
in diethyl ether, 299.18 K	0.00889
in diethyl ether, 301.16 K	0.0101
in diethyl ether, 303.15 K	0.0114
in ethanol, 293.16 K	0.00084
in ethanol, 298.17 K	0.00102
in ethanol, 303.18 K	0.00121
in ethanol, 308.14 K	0.00142
in ethanol, 313.16 K	0.00173
in ethanol, 318.17 K	0.00202
in ethanol, 323.16 K	0.00241
in methanol, 293.16 K	0.00022
in methanol, 298.17 K	0.00029
in methanol, 303.18 K	0.0004
in methanol, 308.14 K	0.00051
in methanol, 313.16 K	0.00066
in methanol, 318.17 K	0.00083
in methanol, 323.16 K	0.00107
in toluene, 293.16 K	0.00035
in toluene, 298.17 K	0.00042
in toluene, 303.18 K	0.00051
in toluene, 308.14 K	0.00061
in toluene, 313.16 K	0.00075
in toluene, 318.17 K	0.00089
in toluene, 323.16 K	0.00105
in toluene, 328.17 K	0.00123
in toluene, 333.15 K	0.00145
